Results as given in BindingDB's records for doi:10.3109/14756366.2010.491795 (Dumlupinar University, 2011).
pIC50, pKi: −log10 of the molar value.

Key:
Carbonic anhydrase 1 [1] = molecular target: T1, Carbonic anhydrase 1 (Homo sapiens, UniProt P00915); assay: Enzyme Activity Assay
Carbonic anhydrase 2 [2] = molecular target: T2, Carbonic anhydrase 2 (Homo sapiens, UniProt P00918); assay: Enzyme Activity Assay
Carbonic anhydrase 1 [3] = molecular target: T1, Carbonic anhydrase 1; assay: Esterase Activity Assay; conditions: pH 7.4
Method: (§1) The enzymatic reaction, in a total volume of 3 mL, contained 1.4 mL of 0.05 M tris-SO4 buffer (pH 7.4), 1 mL of 3 mM 4-nitrophenylacetate, 0.5 mL H2O and 0.1 mL enzyme solution. A reference measurement was obtained by preparing the same cuvette without any enzyme solution.

Carbonic anhydrase 2 [4] = molecular target: T2, Carbonic anhydrase 2; assay: Esterase Activity Assay; conditions: pH 7.4
Method: as §1

Carbonic anhydrase 1 [5] = molecular target: T1, Carbonic anhydrase 1; assay: Hydratase Activity Assay
Carbonic anhydrase 2 [6] = molecular target: T2, Carbonic anhydrase 2; assay: Hydratase Activity Assay

T1 sequence (P00915 whole entry): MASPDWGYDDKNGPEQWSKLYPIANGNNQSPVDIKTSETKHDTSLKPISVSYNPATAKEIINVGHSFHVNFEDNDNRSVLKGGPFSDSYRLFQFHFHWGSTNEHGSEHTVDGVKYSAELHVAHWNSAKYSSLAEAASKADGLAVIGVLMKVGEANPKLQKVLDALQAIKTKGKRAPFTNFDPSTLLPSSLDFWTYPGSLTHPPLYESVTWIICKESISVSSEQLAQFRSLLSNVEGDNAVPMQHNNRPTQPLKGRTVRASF

Compound | pKi (Carbonic anhydrase 1 [1]) | pKi (Carbonic anhydrase 2 [2]) | pIC50 (Carbonic anhydrase 1 [3]) | pIC50 (Carbonic anhydrase 2 [4]) | pIC50 (Carbonic anhydrase 1 [5]) | pIC50 (Carbonic anhydrase 2 [6])
NS(=O)(=O)c1nnc(NC(=O)c2nn(-c3ccc(NN=C(C(=O)c4ccccc4)C(=O)c4ccccc4)cc3)c(-c3ccccc3)c2C(=O)c2ccccc2)s1 [4-Benzoyl-1-(4-(2-(1,3-dioxo-1,3-diphenylpropan-2-ylidene)hydrazinyl)phenyl)-5-phenyl-N-(5-sulphamoyl-1,3,4-thiadiazol-2-yl)-1H-pyrazole-3-carboxamide (13)] | 5.99 | 5.50 | 5.32 | 5.85 | 6.15 | 6.00
NS(=O)(=O)c1nnc(NC(=O)c2nn(-c3ccc(I)cc3)c(-c3ccccc3)c2C(=O)c2ccccc2)s1 [4-Benzoyl-1-(4-iodophenyl)-5-phenyl-N-(5-sulphamoyl-1,3,4-thiadiazol-2-yl)-1H-pyrazole-3-carboxamide (10)] | 6.44 | 7.25 | 6.46 | 7.30 | 6.57 | 6.74
CC(=O)Cn1c(C)cc2cc(-n3nc(C(=O)Nc4nnc(S(N)(=O)=O)s4)c(C(=O)c4ccccc4)c3-c3ccccc3)ccc21 [4-Benzoyl-1-(2-methyl-1-(2-oxopropyl)-1H-indol-5-yl)-5-phenyl-N-(5-sulphamoyl-1,3,4-thiadiazol-2-yl)-1H-pyrazole-3-carboxamide (18)] | 5.18 | 5.41 | 5.62 | 5.76 | 6.12 | 6.22
CCOC(=O)/C(=N/Nc1ccc(-n2nc(C(=O)Nc3nnc(S(N)(=O)=O)s3)c(C(=O)c3ccccc3)c2-c2ccccc2)cc1)C(=O)c1ccccc1 [Ethyl 2-(2-(4-(4-benzoyl-5-phenyl-3-(5-sulphamoyl-1,3,4-thiadiazol-2-ylcarbamoyl)-1H-pyrazol-1-yl)phenyl)hydrazono)-3-oxo-3-phenylpropanoate (14)] | 5.81 | 6.30 | 6.10 | 6.07 | 5.88 | 5.89
CC(=O)C(=NNc1ccc(-n2nc(C(=O)Nc3nnc(S(N)(=O)=O)s3)c(C(=O)c3ccccc3)c2-c2ccccc2)cc1)C(C)=O [4-Benzoyl-1-(4-(2-(2,4-dioxopentan-3-ylidene)hydrazinyl)phenyl)-5-phenyl-N-(5-sulphamoyl-1,3,4-thiadiazol-2-yl)-1H-pyrazole-3-carboxamide (11)] | 6.24 | 6.99 | 6.24 | 6.89 | 6.48 | 7.10
CC(=O)/C(=N\Nc1ccc(-n2nc(C(=O)Nc3nnc(S(N)(=O)=O)s3)c(C(=O)c3ccccc3)c2-c2ccccc2)cc1)C(=O)c1ccccc1 [4-Benzoyl-1-(4-(2-(1,3-dioxo-1-phenylbutan-2-ylidene)hydrazinyl)phenyl)-5-phenyl-N-(5-sulphamoyl-1,3,4-thiadiazol-2-yl)-1H-pyrazole-3-carboxamide (12)] | 5.81 | 6.61 | 6.00 | 6.43 | 6.79 | 6.80
NS(=O)(=O)c1nnc(NC(=O)c2nn(-c3ccc(/N=N/c4ccc(O)cc4)cc3)c(-c3ccccc3)c2C(=O)c2ccccc2)s1 [4-Benzoyl-1-(4-((4-hydroxyphenyl)diazenyl)phenyl)-5-phenyl-N-(5-sulphamoyl-1,3,4-thiadiazol-2-yl)-1H-pyrazole-3-carboxamide (9)] | 7.02 | 7.74 | 6.64 | 7.52 | 6.70 | 6.10
CCOC(=O)C(=NNc1ccc(-n2nc(C(=O)Nc3nnc(S(N)(=O)=O)s3)c(C(=O)c3ccccc3)c2-c2ccccc2)cc1)C(=O)OCC [Diethyl 2-(2-(4-(4-benzoyl-5-phenyl-3-(5-sulphamoyl-1,3,4-thiadiazol-2-ylcarbamoyl)-1H-pyrazol-1-yl)phenyl)hydrazono)malonate (16)] | 6.52 | 7.19 | 6.42 | 7.15 | 6.07 | 6.00
CCOC(=O)/C(=N/Nc1ccc(-n2nc(C(=O)Nc3nnc(S(N)(=O)=O)s3)c(C(=O)c3ccccc3)c2-c2ccccc2)cc1)C(C)=O [Ethyl 2-(2-(4-(4-benzoyl-5-phenyl-3-(5-sulphamoyl-1,3,4-thiadiazol-2-ylcarbamoyl)-1H-pyrazol-1-yl)phenyl)hydrazono)-3-oxobutanoate (15)] | 5.92 | 6.90 | 6.04 | 6.85 | 5.92 | 6.10
NS(=O)(=O)c1nnc(NC(=O)c2nn(-c3ccc(/N=N/c4c(O)ccc5ccccc45)cc3)c(-c3ccccc3)c2C(=O)c2ccccc2)s1 [4-Benzoyl-1-(4-((2-hydroxynaphthalen-1-yl)diazenyl)phenyl)-5-phenyl-N-(5-sulphamoyl-1,3,4-thiadiazol-2-yl)-1H-pyrazole-3-carboxamide (8)] | 5.23 | 6.07 | 5.32 | 5.68 | 5.54 | 5.62
CC(=O)/C(=N\Nc1ccc(-n2nc(C(=O)Nc3nnc(S(N)(=O)=O)s3)c(C(=O)c3ccccc3)c2-c2ccccc2)cc1)C(=O)OC(C)(C)C [tert-Butyl 2-(2-(4-(4-benzoyl-5-phenyl-3-(5-sulphamoyl-1,3,4-thiadiazol-2-ylcarbamoyl)-1H-pyrazol-1-yl)phenyl)hydrazono)-3-oxobutanoate (17)] | 6.51 | 6.97 | 6.48 | 7.10 | 6.11 | 6.70
